≈ marks a conversion by molar mass, not a printed value.
Columns and labels:
Type in all cases: functional
Acinetobacter baumannii [1] = assay: Antibacterial activity against Acinetobacter baumannii assessed as post antibiotic effect at 10 times MIC concentration incubated for 1 hr measured after 1:1000 dilution by viable plate count method
Acinetobacter baumannii [2] = assay: (§1) Antibacterial activity against Acinetobacter baumannii assessed as post-antibiotic sub-MIC effect at 0.4 times MIC concentration pretreated with 6 times MIC concentration for 1 hr followed by 1:1000 dilution by viable plate count method
Haemophilus influenzae [3] = assay: Antibacterial activity against amoxicillin, clavulanate-resistant Haemophilus influenzae expressing beta-lactamase assessed as sub-MIC effect at 0.3 times MIC concentration incubated for 1 hr by viable plate count method
Staphylococcus aureus [4] = assay: Antibacterial activity against vancomycin-sensitive methicillin-resistant Staphylococcus aureus assessed as post-antibiotic sub-MIC effect at 0.3 times MIC concentration pretreated with 10 times MIC concentration for 1 hr followed by 1:1000 dilution by viable plate count method
Acinetobacter baumannii [5] = assay: Antibacterial activity against Acinetobacter baumannii assessed as post-antibiotic sub-MIC effect at 0.2 times MIC concentration pretreated with 6 times MIC concentration for 1 hr followed by 1:1000 dilution by viable plate count method
Staphylococcus aureus [6] = assay: Antibacterial activity against vancomycin-sensitive methicillin-resistant Staphylococcus aureus assessed as post antibiotic effect at 10 times MIC concentration incubated for 1 hr measured after 1:1000 dilution by viable plate count method
Enterococcus faecalis [7] = assay: Antibacterial activity against vancomycin-sensitive Enterococcus faecalis assessed as post-antibiotic sub-MIC effect at 0.4 times MIC concentration pretreated with 10 times MIC concentration for 1 hr followed by 1:1000 dilution by viable plate count method
Staphylococcus aureus [8] = assay: Antibacterial activity against vancomycin-intermediate methicillin-resistant Staphylococcus aureus assessed as post-antibiotic sub-MIC effect at 0.3 times MIC concentration pretreated with 10 times MIC concentration for 1 hr followed by 1:1000 dilution by viable plate count method
Escherichia coli [9] = assay: Antibacterial activity against Escherichia coli assessed as sub-MIC effect at 0.4 times MIC concentration incubated for 1 hr by viable plate count method
Enterobacter cloacae [10] = assay: Antibacterial activity against Enterobacter cloacae assessed as post antibiotic effect at 2 times MIC concentration incubated for 1 hr measured after 1:1000 dilution by viable plate count method
Haemophilus influenzae [11] = assay: Antibacterial activity against beta-lactamase deficient ampicillin-resistant Haemophilus influenzae assessed as post-antibiotic sub-MIC effect at 0.3 times MIC concentration pretreated with 10 times MIC concentration for 1 hr followed by 1:1000 dilution by viable plate count method
Acinetobacter baumannii [12] = assay: Antibacterial activity against multidrug-resistant Acinetobacter baumannii producing OXA-24 and OXA-51 beta-lactamases assessed as sub-MIC effect at 0.2 times MIC concentration incubated for 1 hr by viable plate count method
Enterococcus faecalis [13] = assay: Antibacterial activity against vancomycin-sensitive Enterococcus faecalis assessed as post-antibiotic sub-MIC effect at 0.3 times MIC concentration pretreated with 10 times MIC concentration for 1 hr followed by 1:1000 dilution by viable plate count method
Escherichia coli [14] = assay: Antibacterial activity against Escherichia coli assessed as post antibiotic effect at 6 times MIC concentration incubated for 1 hr measured after 1:1000 dilution by viable plate count method
Acinetobacter baumannii [15] = assay: as §1, with “against multidrug-resistant” for “against”, “baumannii producing OXA-24 and OXA-51 beta-lactamases” for “baumannii”, “10” for “6”
Haemophilus influenzae [16] = assay: Antibacterial activity against beta-lactamase deficient and ampicillin-resistant Haemophilus influenzae assessed as sub-MIC effect at 0.3 times MIC concentration incubated for 1 hr by viable plate count method
Streptococcus pneumoniae [17] = assay: Antibacterial activity against penicillin-intermediate Streptococcus pneumoniae assessed as post-antibiotic sub-MIC effect at 0.2 times MIC concentration pretreated with 10 times MIC concentration for 1 hr followed by 1:1000 dilution by viable plate count method
Enterococcus faecalis [18] = assay: Antibacterial activity against vancomycin-resistant Enterococcus faecalis assessed as post-antibiotic sub-MIC effect at 0.3 times MIC concentration pretreated with 10 times MIC concentration for 1 hr followed by 1:1000 dilution by viable plate count method
Haemophilus influenzae [19] = assay: Antibacterial activity against amoxicillin, clavulanate-resistant Haemophilus influenzae expressing beta-lactamase assessed as post-antibiotic sub-MIC effect at 0.3 times MIC concentration pretreated with 10 times MIC concentration for 1 hr followed by 1:1000 dilution by viable plate count method
Staphylococcus aureus [20] = assay: Antibacterial activity against vancomycin-sensitive methicillin-resistant Staphylococcus aureus assessed as post-antibiotic sub-MIC effect at 0.2 times MIC concentration pretreated with 10 times MIC concentration for 1 hr followed by 1:1000 dilution by viable plate count method
Enterococcus faecalis [21] = assay: Antibacterial activity against vancomycin-sensitive Enterococcus faecalis assessed as post-antibiotic sub-MIC effect at 0.2 times MIC concentration pretreated with 10 times MIC concentration for 1 hr followed by 1:1000 dilution by viable plate count method
Staphylococcus aureus [22] = assay: Antibacterial activity against vancomycin-sensitive methicillin-resistant Staphylococcus aureus by macrodilution method
Enterococcus faecalis [23] = assay: Antibacterial activity against vancomycin-sensitive Enterococcus faecalis by macrodilution method
Streptococcus pneumoniae [24] = assay: Antibacterial activity against penicillin-intermediate Streptococcus pneumoniae assessed as sub-MIC effect at 0.2 times MIC concentration incubated for 1 hr by viable plate count method
Enterobacter cloacae [25] = assay: Antibacterial activity against Enterobacter cloacae assessed as post antibiotic effect
Acinetobacter baumannii [26] = assay: Antibacterial activity against multidrug-resistant Acinetobacter baumannii producing OXA-24 and OXA-51 beta-lactamases assessed as post-antibiotic sub-MIC effect at 0.4 times MIC concentration pretreated with 2 times MIC concentration for 1 hr followed by 1:1000 dilution by viable plate count method
Staphylococcus aureus [27] = assay: Antibacterial activity against vancomycin-intermediate methicillin-resistant Staphylococcus aureus by macrodilution method
Streptococcus pneumoniae [28] = assay: Antibacterial activity against penicillin-resistant Streptococcus pneumoniae assessed as post-antibiotic sub-MIC effect at 0.2 times MIC concentration pretreated with 10 times MIC concentration for 1 hr followed by 1:1000 dilution by viable plate count method
Escherichia coli [29] = assay: Antibacterial activity against Escherichia coli assessed as post-antibiotic sub-MIC effect at 0.4 times MIC concentration pretreated with 6 times MIC concentration for 1 hr followed by 1:1000 dilution by viable plate count method
Acinetobacter baumannii [30] = assay: Antibacterial activity against Acinetobacter baumannii assessed as post-antibiotic sub-MIC effect at 0.3 times MIC concentration pretreated with 6 times MIC concentration for 1 hr followed by 1:1000 dilution by viable plate count method
Acinetobacter baumannii [31] = assay: Antibacterial activity against multidrug-resistant Acinetobacter baumannii producing OXA-24 and OXA-51 beta-lactamases assessed as sub-MIC effect at 0.3 times MIC concentration incubated for 1 hr by viable plate count method
Streptococcus pneumoniae [32] = assay: Antibacterial activity against penicillin-susceptible Streptococcus pneumoniae assessed as sub-MIC effect at 0.3 times MIC concentration incubated for 1 hr by viable plate count method
Haemophilus influenzae [33] = assay: Antibacterial activity against beta-lactamase deficient and ampicillin-resistant Haemophilus influenzae assessed as post antibiotic effect at 10 times MIC concentration incubated for 1 hr measured after 1:1000 dilution by viable plate count method

Question: `CN(C)c1cc(NC(=O)CNC(C)(C)C)c(O)c2c1C[C@H]1C[C@H]3[C@H](N(C)C)C(O)=C(C(N)=O)C(=O)[C@@]3(O)C(O)=C1C2=O` [TIGECYCLINE] was tested. Which PAE (Acinetobacter baumannii [1]) did it give?
Answer: Its PAE is 2.9 h.

Question: What about the PAE (Acinetobacter baumannii [2]) of the same compound?
Answer: The PAE was over 11.2 h.

Question: What about the PAE (Haemophilus influenzae [3]) of the same compound?
Answer: Its PAE is 0.8 h.

Question: And the PAE (Staphylococcus aureus [4])?
Answer: The PAE was 5.2 h.

Question: What about the PAE (Acinetobacter baumannii [5]) of the same compound?
Answer: The PAE was 5.2 h.

Question: And the PAE (Staphylococcus aureus [6])?
Answer: The PAE was 3.2 h.

Question: What about the PAE (Enterococcus faecalis [7]) of the same compound?
Answer: Its PAE is 8.2 h.

Question: And the PAE (Staphylococcus aureus [8])?
Answer: Its PAE is 9.9 h.

Question: What about the PAE (Escherichia coli [9]) of the same compound?
Answer: The PAE was 0.1 h.

Question: And the PAE (Enterobacter cloacae [10])?
Answer: Its PAE is 1 h.

Question: What about the PAE (Haemophilus influenzae [11]) of the same compound?
Answer: Its PAE is 2.8 h.

Question: What about the PAE (Acinetobacter baumannii [12]) of the same compound?
Answer: Its PAE is 0.4 h.

Question: And the PAE (Enterococcus faecalis [13])?
Answer: The PAE was 6.8 h.

Question: And the PAE (Escherichia coli [14])?
Answer: Its PAE is 1.9 h.

Question: And the PAE (Acinetobacter baumannii [15])?
Answer: Its PAE is 3.8 h.

Question: And the PAE (Haemophilus influenzae [16])?
Answer: The PAE was 0.8 h.

Question: And the PAE (Streptococcus pneumoniae [17])?
Answer: The PAE was 6.1 h.

Question: What about the PAE (Enterococcus faecalis [18]) of the same compound?
Answer: Its PAE is 10.5 h.

Question: What about the PAE (Haemophilus influenzae [19]) of the same compound?
Answer: The PAE was 5.4 h.

Question: What about the PAE (Staphylococcus aureus [20]) of the same compound?
Answer: Its PAE is 3.6 h.

Question: And the PAE (Enterococcus faecalis [21])?
Answer: The PAE was 5.3 h.

Question: And the MIC (Staphylococcus aureus [22])?
Answer: Its MIC is 0.12 µg/mL (≈ 0.205 µM).

Question: What about the MIC (Enterococcus faecalis [23]) of the same compound?
Answer: The MIC was 0.06 µg/mL (≈ 0.102 µM).

Question: What about the PAE (Streptococcus pneumoniae [24]) of the same compound?
Answer: Its PAE is 1.9 h.

Question: And the PAE (Enterobacter cloacae [25])?
Answer: The PAE was 2 h.

Question: What about the PAE (Acinetobacter baumannii [26]) of the same compound?
Answer: Its PAE is 3 h.

Question: What about the MIC (Staphylococcus aureus [27]) of the same compound?
Answer: The MIC was 0.12 µg/mL (≈ 0.205 µM).

Question: What about the PAE (Streptococcus pneumoniae [28]) of the same compound?
Answer: The PAE was 6.7 h.

Question: What about the PAE (Escherichia coli [29]) of the same compound?
Answer: Its PAE is 3.3 h.

Question: What about the PAE (Acinetobacter baumannii [30]) of the same compound?
Answer: Its PAE is 10.7 h.

Question: And the PAE (Acinetobacter baumannii [31])?
Answer: Its PAE is 0.7 h.

Question: What about the PAE (Streptococcus pneumoniae [32]) of the same compound?
Answer: The PAE was 0 h.

Question: And the PAE (Haemophilus influenzae [33])?
Answer: Its PAE is 1.1 h.

Reference: ChEMBL document CHEMBL1629634, “Postantibiotic effect of tigecycline against 14 gram-positive organisms” (Antimicrob Agents Chemother, 2009)
